Laboratory results from PMC9850959 (European journal of medicinal chemistry, 2019).
“Also recorded” adds a separate entry of the source. Counter-ions that a name gives are not always drawn. One block for each compound: values may come before it.

Key:
[1] = cited from earlier work
[2] = cited from earlier work; remark: listed apart in the source
human nSMase2 = target: T1, human nSMase2 (Homo sapiens, UniProt Q9NY59); assay: fluorescence-based coupled nSMase2 assay; format: biochemical; conditions: for nSMase2 inhibitory activity (in words): compared with DPTIP or parent analog
T1 sequence (Q9NY59 1-655): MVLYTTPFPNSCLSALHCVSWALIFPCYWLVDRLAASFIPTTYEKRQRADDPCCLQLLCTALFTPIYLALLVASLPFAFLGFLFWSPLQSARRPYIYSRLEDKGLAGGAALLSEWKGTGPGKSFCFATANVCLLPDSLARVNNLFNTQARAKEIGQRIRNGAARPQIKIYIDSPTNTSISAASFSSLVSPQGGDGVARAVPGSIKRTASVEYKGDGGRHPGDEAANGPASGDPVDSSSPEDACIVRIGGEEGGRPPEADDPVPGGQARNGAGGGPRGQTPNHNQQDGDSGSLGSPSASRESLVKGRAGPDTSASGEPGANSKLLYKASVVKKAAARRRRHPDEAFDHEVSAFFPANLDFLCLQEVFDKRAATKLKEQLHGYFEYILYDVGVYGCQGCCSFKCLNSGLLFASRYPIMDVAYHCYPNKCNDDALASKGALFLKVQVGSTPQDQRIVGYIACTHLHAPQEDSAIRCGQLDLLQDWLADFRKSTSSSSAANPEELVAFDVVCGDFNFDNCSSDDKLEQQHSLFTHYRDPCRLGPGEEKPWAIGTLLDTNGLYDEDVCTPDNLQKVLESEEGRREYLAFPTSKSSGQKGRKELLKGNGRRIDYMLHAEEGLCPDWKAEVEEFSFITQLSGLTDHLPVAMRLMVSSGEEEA

[3] = tested on: AP, choline oxidase, and horseradish peroxidase; assay: counter screen assay without nSMase2 and sphingomyelin, with phosphorylcholine; format: biochemical
[4] = glucuronidation stability in mouse liver microsomes in the presence of UDPGA; format: in vitro ADME
[5] = phase I metabolic stability in mouse liver microsomes; format: in vitro ADME
[6] = phase I metabolic stability in human liver microsomes; format: in vitro ADME
[7] = oral pharmacokinetics in mice; format: in vivo
nSMase2 = conditions: with respect to sphingomyelin; cited from earlier work
[8] = tested on: primary astrocyte cultures; conditions: cited from earlier work
[9] = tested on: IL-1β-induced astrocyte-derived extracellular vesicle release; conditions: GFAP-GFP mice, brain injury model; cited from earlier work

Structure (SMILES): O=c1[nH]c(=S)[nH]c(-c2ccccc2)c1Cc1c(O)ccc2ccccc12 [Cambinol]
solubility compared to GW4869 (in words) [1]: better solubility compared to GW4869 | metabolic stability (in words) [2]: metabolically unstable

loss of inhibitory potency relative to DPTIP (human nSMase2): 10 fold
Structure (SMILES): COc1cc(-c2ncc[nH]2)cc(OC)c1O [Compound 3a, 4-(1H-Imidazol-2-yl)-2,6-dimethoxyphenol]

loss of inhibitory potency relative to DPTIP (human nSMase2): 100 fold | inhibition in the counter assay (in words) [3]: no longer distinguishable
Structure (SMILES): Oc1ccc(-c2nc(-c3ccccc3)c(-c3cccs3)[nH]2)cc1 [Compound 6b, 4-(4-Phenyl-5-(thiophen-2-yl)-1H-imidazol-2-yl)phenol]

inhibition in the counter assay (in words) [3]: potent inhibition
Structure (SMILES): COc1cc(-c2nc(-c3ccccc3)c(-c3cccs3)[nH]2)cc(O)c1O [Compound 6c, 3-Methoxy-5-(4-phenyl-5-(thiophen-2-yl)-1H-imidazol-2-yl)benzene-1,2-diol]

inhibition in the counter assay (in words) [3]: potent inhibition
Structure (SMILES): Oc1cc(-c2nc(-c3ccccc3)c(-c3cccs3)[nH]2)cc(O)c1O [Compound 6d, 5-(4-Phenyl-5-(thiophen-2-yl)-1H-imidazol-2-yl)benzene-1,2,3-triol]

nSMase2 inhibitory activity (in words) (human nSMase2): complete loss of activity
Structure (SMILES): Oc1c(Cl)cc(-c2nc(-c3ccccc3)c(-c3cccs3)[nH]2)cc1Cl [Compound 6e, 2,6-Dichloro-4-(4-phenyl-5-(thiophen-2-yl)-1H-imidazol-2-yl)phenol]

nSMase2 inhibitory activity (in words) (human nSMase2): completely inactive
Structure (SMILES): COc1cc(-c2nc(-c3ccccc3)c(-c3cccs3)[nH]2)cc(OC)c1OC [Compound 6g]

nSMase2 inhibitory activity (in words) (human nSMase2): complete loss of potency
Structure (SMILES): Oc1ccccc1-c1nc(-c2ccccc2)c(-c2cccs2)[nH]1 [Compound 6i]

nSMase2 inhibitory activity (in words) (human nSMase2): complete loss of potency
Structure (SMILES): Oc1cccc(-c2nc(-c3ccccc3)c(-c3cccs3)[nH]2)c1 [Compound 6j]

Structure (SMILES): CC(C)Oc1cc(-c2nc(-c3ccccc3)c(-c3cccs3)[nH]2)cc(OC(C)C)c1O [Compound 9b, 2,6-Diisopropoxy-4-(4-phenyl-5-(thiophen-2-yl)-1H-imidazol-2-yl)phenol]
resistance to glucuronidation (in words) ([4]; mouse liver microsomes, UDPGA): completely resistant to glucuronidation; also recorded: complete resistance to glucuronidation

nSMase2 inhibitory activity (in words) (human nSMase2): decrease in potency
Structure (SMILES): Oc1c(OC2CCCC2)cc(-c2nc(-c3ccccc3)c(-c3cccs3)[nH]2)cc1OC1CCCC1 [Compound 9c, 2,6-Bis(cyclopentyloxy)-4-(5-phenyl-4-(thiophen-2-yl)-1H-imidazol-2-yl)phenol]

Structure (SMILES): Oc1c(OCC(F)(F)F)cc(-c2nc(-c3ccccc3)c(-c3cccs3)[nH]2)cc1OCC(F)(F)F [Compound 12, 4-(4-Phenyl-5-(thiophen-2-yl)-1H-imidazol-2-yl)-2,6-bis(2,2,2-trifluoroethoxy)phenol]
phase I metabolic stability (in words) [5]: metabolic stability was completely regained | phase I metabolic stability (in words) [6]: metabolic stability was completely regained

Structure (SMILES): CC(C)(C)Oc1cc(-c2nc(-c3ccccc3)c(-c3cccs3)[nH]2)cc(OC(C)(C)C)c1O [Compound 16, 2,6-Di-t-butoxy-4-(4-phenyl-5-(thiophen-2-yl)-1H-imidazol-2-yl)phenol]
nSMase2 inhibitory activity (in words) (human nSMase2): decrease in potency

nSMase2 inhibitory activity (in words) (human nSMase2): substantial decrease in potency
Structure (SMILES): COc1cc(-c2nccs2)cc(OC)c1O [Compound 19, 2,6-Dimethoxy-4-(thiazol-2-yl)phenol]

nSMase2 inhibitory activity (in words) (human nSMase2): complete loss of potency
Structure (SMILES): COc1cc(C2=NCCN2)cc(OC)c1O [Compound 22, 4-(4,5-Dihydro-1H-imidazol-2-yl)-2,6-dimethoxyphenol hydrochloride]

remaining at 1 h ([4]; mouse, liver microsomes, pH 7.5): < 20% | phase I metabolic stability (in words) [5]: metabolically stable | major metabolite in plasma ([7]; mouse plasma after oral administration): glucuronide | CNS penetration (in words) ([7]; oral, mice): negligible CNS penetration | phase I metabolic stability (in words) [6]: metabolically stable
Structure (SMILES): COc1cc(-c2nc(C(C)C)c(C(C)C)[nH]2)cc(OC)c1O [Compound 25b, 4-(4,5-Diisopropyl-1H-imidazol-2-yl)-2,6-dimethoxyphenol hydrochloride]
plasma exposure compared to DPTIP (in words) ([7]; oral administration, mice): higher plasma exposure; also recorded: superior plasma pharmacokinetics

loss of the parent compound ([4]; mouse liver microsomes, UDPGA, 1 h): 33% | phase I metabolic stability (in words) [5]: stable | phase I metabolic stability (in words) [6]: stable
Structure (SMILES): COc1cc(-c2nc(-c3cccs3)c(-c3ccccc3)[nH]2)cc(OC)c1O [DPTIP, 2,6-dimethoxy-4-[4-phenyl-5-(2-thienyl)-1H-imidazol-2-yl]phenol]
mechanism of inhibition (nSMase2): noncompetitive | extracellular vesicle release (in words) [8]: dose-dependently inhibit extracellular vesicle release | IL-1β-induced astrocyte-derived extracellular vesicle release (in words) [9]: attenuate

Structure (SMILES): O=C(/C=C\c1ccc(/C=C\C(=O)Nc2ccc(C3=NCCN3)cc2)cc1)Nc1ccc(C2=NCCN2)cc1 [GW4869]
aqueous solubility (in words) [1]: negligible aqueous solubility
